Measurements reported in US20210198277A1, “AMINE-SUBSTITUTED ARYL OR HETEROARYL COMPOUNDS” (Epizyme, Inc., priority 2016, published 2021).

Assays:
human EHMT2 913-1193 = target: T1, human EHMT2 913-1193 (Homo sapiens, UniProt Q96KQ7); test: EHMT2 enzyme assay on histone peptide substrate (EHMT2 PEP); format: biochemical; conditions: Table III; read-out: EHMT2 PEP (IC50 μM)
T1 construct: recombinant purified human EHMT2 913-1193, Viva; purchased Viva
T1 sequence (Q96KQ7 913-1193): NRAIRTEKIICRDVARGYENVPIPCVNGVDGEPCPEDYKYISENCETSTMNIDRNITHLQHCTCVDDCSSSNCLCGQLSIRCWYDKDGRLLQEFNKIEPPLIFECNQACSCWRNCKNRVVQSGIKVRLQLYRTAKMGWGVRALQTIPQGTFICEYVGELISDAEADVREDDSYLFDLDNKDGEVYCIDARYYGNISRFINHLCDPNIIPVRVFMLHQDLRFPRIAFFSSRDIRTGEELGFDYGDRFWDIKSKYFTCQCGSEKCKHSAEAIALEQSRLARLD
Method in brief: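 Compounds (10-point, 3-fold dilutions, top 50 μM final, 2% DMSO) preincubated 30 min with 0.031 nM EHMT2 in 20 mM Bicine pH 7.5, 0.002% Tween 20, 0.005% gelatin, 1 mM TCEP. Biotinylated histone peptide methylated with ^3H-SAM 60 min at room temperature. Quenched with unlabeled SAM; product captured on streptavidin Flashplate, scintillation counted.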

EHMT1 = target: T2, EHMT1 (Homo sapiens, UniProt Q9H9B1); test: EHMT1 enzyme assay on peptide substrate (EHMT1 PEP); format: biochemical; conditions: Table III; read-out: EHMT1 PEP (IC50 μM)
T2 sequence (Q9H9B1 1-1298): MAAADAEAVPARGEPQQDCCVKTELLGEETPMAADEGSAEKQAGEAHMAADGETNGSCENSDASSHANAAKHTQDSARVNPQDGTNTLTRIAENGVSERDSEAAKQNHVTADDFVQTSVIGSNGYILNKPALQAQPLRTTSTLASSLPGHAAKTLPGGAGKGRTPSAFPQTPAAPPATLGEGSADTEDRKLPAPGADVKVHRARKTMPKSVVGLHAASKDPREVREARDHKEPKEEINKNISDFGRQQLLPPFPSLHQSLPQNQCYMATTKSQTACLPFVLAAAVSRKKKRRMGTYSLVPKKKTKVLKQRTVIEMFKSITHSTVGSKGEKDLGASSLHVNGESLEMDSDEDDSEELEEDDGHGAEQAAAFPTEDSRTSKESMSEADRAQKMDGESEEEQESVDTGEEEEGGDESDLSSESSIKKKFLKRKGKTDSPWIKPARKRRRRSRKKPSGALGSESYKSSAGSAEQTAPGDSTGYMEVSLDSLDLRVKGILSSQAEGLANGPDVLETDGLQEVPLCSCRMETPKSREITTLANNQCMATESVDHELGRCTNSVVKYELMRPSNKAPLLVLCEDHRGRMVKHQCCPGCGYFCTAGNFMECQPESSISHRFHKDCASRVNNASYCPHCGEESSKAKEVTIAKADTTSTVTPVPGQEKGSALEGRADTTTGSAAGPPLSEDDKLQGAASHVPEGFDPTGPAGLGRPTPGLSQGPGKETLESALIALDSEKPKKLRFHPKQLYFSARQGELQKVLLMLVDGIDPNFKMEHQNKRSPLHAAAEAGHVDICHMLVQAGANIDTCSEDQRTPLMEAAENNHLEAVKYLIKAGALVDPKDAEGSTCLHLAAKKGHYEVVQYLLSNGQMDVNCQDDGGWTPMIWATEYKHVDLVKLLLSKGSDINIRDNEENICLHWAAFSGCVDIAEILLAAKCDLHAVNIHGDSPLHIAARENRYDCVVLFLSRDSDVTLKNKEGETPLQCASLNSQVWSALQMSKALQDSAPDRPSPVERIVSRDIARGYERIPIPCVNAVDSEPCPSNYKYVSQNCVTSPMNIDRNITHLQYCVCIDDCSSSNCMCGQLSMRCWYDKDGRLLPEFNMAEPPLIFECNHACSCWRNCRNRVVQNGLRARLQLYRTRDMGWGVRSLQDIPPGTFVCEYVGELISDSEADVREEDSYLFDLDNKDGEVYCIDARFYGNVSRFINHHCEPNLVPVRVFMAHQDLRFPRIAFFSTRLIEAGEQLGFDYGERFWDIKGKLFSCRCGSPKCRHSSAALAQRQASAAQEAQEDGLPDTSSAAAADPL

Row | IC50 (human EHMT2 913-1193) | IC50 (EHMT1) | Compound
1 | 0.1 to 1 µM | 0.1 to 1 µM | CCc1nc(Nc2ccc(OC)c(OCCCN3CCCC3)c2)nc(NC)c1F [Compound 319, 6-ethyl-5-fluoro-N^2-(4-methoxy-3-(3-(pyrrolidin-1-yl)propoxy)phenyl)-N^4-methylpyrimidine-2,4-diamine]
2 | < 0.1 µM | < 0.1 µM | CNc1cc(C2CC2)nc(Nc2ccc(OC)c(OCCCN3CCCC3)c2)n1 [Compound 320, 6-cyclopropyl-N^2-(4-methoxy-3-(3-(pyrrolidin-1-yl)propoxy)phenyl)-N^4-methylpyrimidine-2,4-diamine]
3 | 1 to 10 µM | 1 to 10 µM | CNc1ccnc(Nc2ccc(OC)c(OCCCN(C)CC3CC3)c2)n1 [Compound 424, N^2-(3-(3-((cyclopropylmethyl)(methyl)amino)propoxy)-4-methoxyphenyl)-N^4-methylpyrimidine-2,4-diamine]
4 | 0.1 to 1 µM | 0.1 to 1 µM | CNc1ccnc(Nc2ccc(OC)c(OCCCN3CC(OC)C3)c2)n1 [Compound 425, N^2-(4-methoxy-3-(3-(3-methoxyazetidin-1-yl)propoxy)phenyl)-N^4-methylpyrimidine-2,4-diamine]
5 | 0.1 to 1 µM | 0.1 to 1 µM | CNc1ccnc(Nc2ccc(OC)c(OCCCN3CCC3C)c2)n1 (centres unmarked) [Compound 429, N^2-(4-methoxy-3-(3-(2-methylazetidin-1-yl)propoxy)phenyl)-N^4-methylpyrimidine-2,4-diamine]
6 | > 10 µM | 1 to 10 µM | CNc1ccnc(Nc2ccc(OC)c(OCc3noc(C4CC4)n3)c2)n1 [Compound 433, N^2-(3-((5-cyclopropyl-1,2,4-oxadiazol-3-yl)methoxy)-4-methoxyphenyl)-N^4-methylpyrimidine-2,4-diamine]
7 | > 10 µM | > 10 µM | CNc1ccnc(Nc2ccc(OC)c(OCc3cn(C4CC4)nn3)c2)n1 [Compound 434, N^2-(3-((1-cyclopropyl-1H-1,2,3-triazol-4-yl)methoxy)-4-methoxyphenyl)-N^4-methylpyrimidine-2,4-diamine]
8 | 0.1 to 1 µM | < 0.1 µM | CNc1cc(C)nc(Nc2ccc(OC)c(OCC3CNC3)c2)n1 [Compound 437, N^2-(3-(azetidin-3-ylmethoxy)-4-methoxyphenyl)-N^4,6-dimethylpyrimidine-2,4-diamine]
9 | > 10 µM | > 10 µM | CNc1ccnc(Nc2ccc(OC)c(OCCOC3CCCC3)c2)n1 [Compound 440, N^2-(3-(2-(cyclopentyloxy)ethoxy)-4-methoxyphenyl)-N^4-methylpyrimidine-2,4-diamine]
10 | < 0.1 µM | < 0.1 µM | CNc1cc(C)nc(Nc2ccc(OC)c(OCC3CN(C)C3)c2)n1 [Compound 442, N^2-(4-methoxy-3-((1-methylazetidin-3-yl)methoxy)phenyl)-N^4,6-dimethylpyrimidine-2,4-diamine]
11 | > 10 µM | > 10 µM | COc1ccc(Nc2nc(C)cc(O)n2)cc1OCCCN1CCCC1 [Compound 447, 2-((4-methoxy-3-(3-(pyrrolidin-1-yl)propoxy)phenyl)amino)-6-methylpyrimidin-4-ol]

The remaining lines, values behind:

Row | Compound | IC50 (human EHMT2 913-1193) | IC50 (EHMT1)
12 | COc1cnc(Nc2cnc3ccccn23)cc1OCCCN1CCCC1 [Compound 321, N-(5-methoxy-4-(3-(pyrrolidin-1-yl)propoxy)pyridin-2-yl)imidazo[1,2-a]pyridin-3-amine] | 1 to 10 µM | 1 to 10 µM
13 | CNc1ccnc(Nc2ccc(OC)c(OCCCN3CC(C)C3)c2)n1 [Compound 423, N^2-(4-methoxy-3-(3-(3-methylazetidin-1-yl)propoxy)phenyl)-N^4-methylpyrimidine-2,4-diamine] | 0.1 to 1 µM | 0.1 to 1 µM
14 | CNc1ccnc(Nc2ccc(OC)c(OCc3cc(C4CC4)on3)c2)n1 [Compound 426, N^2-(3-((5-cyclopropylisoxazol-3-yl)methoxy)-4-methoxyphenyl)-N^4-methylpyrimidine-2,4-diamine] | > 10 µM | > 10 µM
15 | CNc1ccnc(N[C@@H]2CCC[C@H](OCCCN3CCCC3)C2)n1 [Compound 427] | > 10 µM | > 10 µM
16 | CNc1cc(CC(F)(F)F)nc(Nc2ccc(OC)c(OCCCN3CCCC3)c2)n1 [Compound 428, N^2-(4-methoxy-3-(3-(pyrrolidin-1-yl)propoxy)phenyl)-N^4-methyl-6-(2,2,2-trifluoroethyl)pyrimidine-2,4-diamine] | 1 to 10 µM | 1 to 10 µM
17 | CCOc1ccc(Nc2nccc(NC)n2)cc1OCCCN1CCCC1 [Compound 430, N^2-(4-ethoxy-3-(3-(pyrrolidin-1-yl)propoxy)phenyl)-N^4-methylpyrimidine-2,4-diamine] | > 10 µM | > 10 µM
18 | CCOc1ccc(Nc2nccc(NC)n2)cc1OCC1CCN(C)C1 (centres unmarked) [Compound 431] | > 10 µM | > 10 µM
19 | CCOc1ccc(Nc2nc(C)cc(NC)n2)cc1OCCCN1CCCC1 [Compound 432, N^2-(4-ethoxy-3-(3-(pyrrolidin-1-yl)propoxy)phenyl)-N^4,6-dimethylpyrimidine-2,4-diamine] | > 10 µM | > 10 µM
20 | CNc1cc(C)nc(Nc2ccc(OC)c(OCC3CCN(C)CC3)c2)n1 [Compound 435, N^2-(4-methoxy-3-((1-methylpiperidin-4-yl)methoxy)phenyl)-N^4,6-dimethylpyrimidine-2,4-diamine] | 1 to 10 µM | 1 to 10 µM
21 | CNc1cc(C)nc(Nc2ccc(OC)c(OCC3CCN(CC4CC4)CC3)c2)n1 [Compound 436, N^2-(3-((1-(cyclopropylmethyl)piperidin-4-yl)methoxy)-4-methoxyphenyl)-N^4,6-dimethylpyrimidine-2,4-diamine] | 1 to 10 µM | > 10 µM
22 | CNc1cc(COC)nc(Nc2ccc(OC)c(OCCCN3CCCC3)c2)n1 [Compound 441, N^2-(4-methoxy-3-(3-(pyrrolidin-1-yl)propoxy)phenyl)-6-(methoxymethyl)-N^4-methylpyrimidine-2,4-diamine] | 0.1 to 1 µM | 0.1 to 1 µM
23 | CNc1cc(C)nc(Nc2ccc(OC)c(OC3CCN(CC4CC4)CC3)c2)n1 [Compound 443] | > 10 µM | > 10 µM
24 | CCN1CC(COc2cc(Nc3nc(C)cc(NC)n3)ccc2OC)C1 [Compound 444] | < 0.1 µM | < 0.1 µM
25 | CNc1cc(C)nc(Nc2ccc(OC)c(OCC3CN(CC4CC4)C3)c2)n1 [Compound 445, N^2-(3-((1-(cyclopropylmethyl)azetidin-3-yl)methoxy)-4-methoxyphenyl)-N^4,6-dimethylpyrimidine-2,4-diamine] | 0.1 to 1 µM | 0.1 to 1 µM
26 | CNc1cc(C)nc(Nc2ccc(OC)c(OCC3CCN(C4CCC4)C3)c2)n1 (centres unmarked) [Compound 446, N^2-(3-((1-cyclobutylpyrrolidin-3-yl)methoxy)-4-methoxyphenyl)-N^4,6-dimethylpyrimidine-2,4-diamine] | < 0.1 µM | < 0.1 µM
27 | COc1ccc(Nc2cc(C)nc(O)n2)cc1OCCCN1CCCC1 [Compound 448, 4-((4-methoxy-3-(3-(pyrrolidin-1-yl)propoxy)phenyl)amino)-6-methylpyrimidin-2-ol] | > 10 µM | > 10 µM
28 | CNc1cc(C)nc(Nc2ccc(OC)c(OCC3CCN(C4COC4)C3)c2)n1 (centres unmarked) [Compound 449, N^2-(4-methoxy-3-((1-(oxetan-3-yl)pyrrolidin-3-yl)methoxy)phenyl)-N^4,6-dimethylpyrimidine-2,4-diamine] | 0.1 to 1 µM | 0.1 to 1 µM
